Results taken from US12377176B2, “Cancer diagnostic imaging agents” (Technische Universität München, priority 2019, dated 2025).
Several values for one entry are separate records, joined by “and”; a condition that tells them apart may be missing. Identical values can stand only once.

Key:
[1] = target: T1, HSA (Homo sapiens, UniProt P02768); test: HSA binding on Chiralpak HSA column; assay type: in vitro ADME; settings: Chiralpak HSA column (50 × 3 mm, 5 μm), (n = 6)
T1 construct: purchased H13H-2433
T1 sequence (P02768 25-609): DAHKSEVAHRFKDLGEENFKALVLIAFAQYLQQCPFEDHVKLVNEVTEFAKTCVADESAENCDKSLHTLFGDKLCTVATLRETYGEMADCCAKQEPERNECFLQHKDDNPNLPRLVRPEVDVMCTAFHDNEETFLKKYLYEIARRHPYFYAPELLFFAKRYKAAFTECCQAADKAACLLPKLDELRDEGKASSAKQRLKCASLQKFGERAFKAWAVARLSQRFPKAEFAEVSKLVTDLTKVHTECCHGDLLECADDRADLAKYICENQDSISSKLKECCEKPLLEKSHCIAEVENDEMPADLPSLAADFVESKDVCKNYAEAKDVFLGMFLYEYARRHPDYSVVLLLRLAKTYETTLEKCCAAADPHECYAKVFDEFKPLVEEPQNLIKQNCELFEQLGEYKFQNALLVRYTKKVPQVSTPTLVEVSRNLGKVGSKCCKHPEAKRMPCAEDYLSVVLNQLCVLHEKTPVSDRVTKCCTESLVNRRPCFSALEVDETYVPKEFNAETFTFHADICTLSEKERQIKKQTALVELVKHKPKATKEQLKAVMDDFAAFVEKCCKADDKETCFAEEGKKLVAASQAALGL
Description: The mobile phase (A: NH4OAc, 50 mM in water, pH 7 and B: isopropanol) was freshly prepared for each experiment and only used for one day. The column was kept at room temperature and each run was stopped after detection of the signal to reduce the acquisition time. All substances were dissolved in a 0.5 mg/ml concentration in 50% 2-propanol and 50% 50 mM pH 6.9 ammonium acetate buffer. […] All nine reference substances were injected consecutively to establish a non-linear regression with Origin Pro 2016G.

[2] = Preclinical dosimetry in SCID mice, extrapolated to 70-kg Standard Adult (OLINDA/EXM 1.0); assay type: in vivo; settings: extrapolated from mice
Description: 3-5 mice were injected per timepoint with a mean 25.6±3.6 MBq of 18F-rhPSMA-7 and 28.5±4.8 MBq of 18F-rhPSMA-7.3, respectively. Mice, severe combined immunodeficiency (SCID) were used for the experiments.
Urine, blood, heart, lung, spleen, pancreas, liver, stomach (emptied), small intestine (emptied), large intestine (emptied), kidneys, bladder, testis, fat, muscle (partial, femoral), femur, tail and brain. Urine was collected with a pipette in the CO2 gas chamber. In case of missing urination in the chamber the bladder was aspirated with an insulin syringe. Blood was withdrawn instantly after sacrifice with an insulin syringe from the heart. All other tissues and organs were dissected and transferred directly in plastic containers.
The counting rates of measurement samples were automatically corrected for decay. The radioactivity distribution ratios (unit: percentage of the injected dose (% ID) in the measurement samples were determined using the equation below. The sum of the counting rates from all measurement samples obtained from one mouse was designated as the counting rate for administrated radioactivity.
For consistency of statistical calculations for each radiotracer the same number of time-points for ^18F-rhPSMA-7 and ^18F-rhPSMA-7.3 was used. Therefore, for ^18F-rhPSMA-7 the 10 min and 20 min time points were combined creating a 15 min endpoint.
In brief, to calculate a human dosimetry from the biodistribution in the mice, an extrapolation was necessary to account for the differences between the animals and humans. Normal-organ radiation doses were estimated for the 70-kg Standard Adult anatomic model using time-depending organ activity concentrations (in percent of the injected dose per gram, % ID/g) and total-body activities measured in the biodistribution studies in mice.
Tissue activity concentrations in mice were converted to tissue fractional activities in the 70-kg Standard Adult using the relative fractional organ masses in the Standard Adult and the “standard” 25-gramm mouse. Time-dependent total-body activity was fit to an exponential function and the difference between the injected activity and the total-body activity was assumed to be excreted to the urine because activity concentrations in the liver and GI tracer were low at all time points studied.
Organ residence time was calculated by numerical integration using the trapezoidal rule and the rest-of-body ^18F residence times was calculated as the difference between the total-body residence time and the sum of the organ and urine residence times. The bladder contents residence time was estimated using the dynamic voiding model in the OLINDA/EXM 1.0 dosimetry software. Finally, the Standard Adult mean organ dose equivalents (in mSv/MBq) and effective dose (also in mSv/MBq) were then calculated using OLINDA/EXM 1.0.

[3] = tested on: LNCaP tumor-bearing CB-17 SCID mice; settings: male, mouse, in vivo, 1 h
Description: To establish tumor xenografts, LNCaP cells (10^7 cells/200 μL) were suspended in a 1:1 mixture (v/v) of Dulbecco modified Eagle medium/Nutrition Mixture F-12 with Glutamax-I (1:1) and Matrigel (BD Biosciences, Germany), and inoculated subcutaneously onto the right shoulder of 6-8 weeks old CB17-SCID mice (Charles River, Sulzfeld, Germany). Mice were used for when tumors had grown to a diameter of 5-8 mm (3-4 weeks after inoculation).
Approximately 1-2 MBq (<0.2 nmol) of the ^18F-labeled PSMA inhibitor was injected into the tail vein of LNCaP tumor-bearing male CB-17 SCID mice and sacrificed after 1 h post injection (n=4-5). Selected organs were removed, weighted and measured in a γ-counter

[4] = Human biodistribution and uptake in tumor lesions, PET/CT SUV; assay type: in vivo; settings: for ratio SUVmax to background, max / ratio SUVmax to background, mean / ratio SUVmax to background, min / ratio SUVmean to background, max / ratio SUVmean to background, mean / ratio SUVmean to background, min: human PET/CT, background gluteal muscle; for SUVmax mean, bladder / SUVmax mean, bloodpool / SUVmax mean, bone / SUVmax mean, duodenum / SUVmax mean, kidney / SUVmax mean, liver / SUVmax mean, lungs / SUVmax mean, pancreas / SUVmax mean, parotic gland / SUVmax mean, spleen / SUVmax mean, submandibular gland / SUVmean mean, duodenum / SUVmean mean, kidney / SUVmean mean, liver / SUVmean mean, lungs / SUVmean mean, pancreas / SUVmean mean, parotic gland / SUVmean mean, spleen / SUVmean mean, submandibular gland / SUVmax mean, background / SUVmean mean, background / SUVmean mean, bladder / SUVmean mean, bloodpool / SUVmean mean, bone / SUVmax mean, tumor / SUVmean mean, tumor: patients, PET/CT; for SUVmax mean, background / SUVmean mean, background: gluteal muscle; for SUVmean mean, bone: non-diseased bone
Description: Human biodistribution was estimated by analysing clinical ^18F-rhPSMA-7- and ^18F-rhPSMA-7.3-PET/CT exams in 47 and 32 patients, respectively.
The mean and maximum standardized uptake values (SUVmean/SUVmax) were determined for background (gluteal muscle), normal organs (salivary glands, blood pool, lung, liver, spleen, pancreas, duodenum, kidney, bladder, bone) and three representative tumor lesions. Tumor uptake was analyzed in 89 lesions (26 primary tumors/local recurrences, 23 bone, 38 lymph node and 2 visceral metastases) and 63 lesions (14 primary tumors/local recurrences, 30 bone, 18 lymph node and 1 visceral metastases) for ^18F-rhPSMA-7 and ^18F-rhPSMA-7.3, respectively.
Organ-background and Tumor-background ratios were calculated.

CC(C)(C)[Si](F)(c1ccc(C(=O)NC[C@@H](NC(=O)CC[C@@H](C(=O)O)N2CCN(CC(=O)O)CCN(CC(=O)O)CCN(CC(=O)O)CC2)C(=O)N[C@H](CCCCNC(=O)CCC(=O)NCCC[C@@H](NC(=O)CC[C@H](NC(=O)N[C@@H](CCC(=O)O)C(=O)O)C(=O)O)C(=O)O)C(=O)O)cc1)C(C)(C)C [rhPSMA7.3, [^19F][^natGa]D-Dap-S-DOTAGA-rhPSMA7, metal not drawn]
HSA Binding [1]: 96.9% | Effective Dose ([2]; 1.0 h bladder voiding interval): 1.28E−02 mSv/MBq | Effective Dose Equivalent ([2]; 1.0 h bladder voiding interval): 1.85E−02 mSv/MBq | Effective Dose ([2]; […] bladder voiding interval): 2.17E−02 mSv/MBq | Effective Dose Equivalent ([2]; […] bladder voiding interval): 2.94E−02 mSv/MBq | Biodistribution adrenals [3]: 2.2 ± 0.83 % ID/g | Biodistribution blood [3]: 0.96 ± 0.24 % ID/g | Biodistribution bone [3]: 0.38 ± 0.32 % ID/g | Biodistribution heart [3]: 0.87 ± 0.17 % ID/g | Biodistribution intestine [3]: 0.35 ± 0.07 % ID/g | Biodistribution kidneys [3]: 292 ± 45.1 % ID/g | Biodistribution liver [3]: 0.69 ± 0.13 % ID/g | Biodistribution lung [3]: 2.2 ± 0.35 % ID/g | Biodistribution muscle [3]: 0.33 ± 0.15 % ID/g | Biodistribution pancreas [3]: 0.63 ± 0.44 % ID/g | Biodistribution spleen [3]: 16.6 ± 2.6 % ID/g | Biodistribution stomach [3]: 0.44 ± 0.23 % ID/g | Biodistribution tumor [3]: 18.3 ± 7.2 % ID/g | ratio SUVmax to background, max ([4]; bladder): 5.5 | ratio SUVmax to background, mean ([4]; bladder): 3.1 | ratio SUVmax to background, min ([4]; bladder): 0.9 | ratio SUVmean to background, max ([4]; bladder): 6.8 | ratio SUVmean to background, mean ([4]; bladder): 3.1 | ratio SUVmean to background, min ([4]; bladder): 0.9 | ratio SUVmax to background, max ([4]; bloodpool): 5.2 | ratio SUVmax to background, mean ([4]; bloodpool): 2.8 | ratio SUVmax to background, min ([4]; bloodpool): 1.5 | ratio SUVmean to background, max ([4]; bloodpool): 4.9 | ratio SUVmean to background, mean ([4]; bloodpool): 2.9 | ratio SUVmean to background, min ([4]; bloodpool): 1.7 | ratio SUVmax to background, max ([4]; bone): 3.2 | ratio SUVmax to background, mean ([4]; bone): 2.0 | ratio SUVmax to background, min ([4]; bone): 1.1 | ratio SUVmean to background, max ([4]; bone): 3.6 | ratio SUVmean to background, mean ([4]; bone): 2.1 | ratio SUVmean to background, min ([4]; bone): 1.0 | ratio SUVmax to background, max ([4]; duodenum): 34.3 | ratio SUVmax to background, mean ([4]; duodenum): 16.2 | ratio SUVmax to background, min ([4]; duodenum): 6.9 | ratio SUVmean to background, max ([4]; duodenum): 39.4 | ratio SUVmean to background, mean ([4]; duodenum): 17.1 | ratio SUVmean to background, min ([4]; duodenum): 4.7 | ratio SUVmax to background, max ([4]; kidney): 93.0 | ratio SUVmax to background, mean ([4]; kidney): 51.8 | ratio SUVmax to background, min ([4]; kidney): 25.7 | ratio SUVmean to background, max ([4]; kidney): 95.5 | ratio SUVmean to background, mean ([4]; kidney): 55.6 | ratio SUVmean to background, min ([4]; kidney): 27.6 | ratio SUVmax to background, max ([4]; liver): 19.0 | ratio SUVmax to background, mean ([4]; liver): 9.7 | ratio SUVmax to background, min ([4]; liver): 4.0 | ratio SUVmean to background, max ([4]; liver): 20.7 | ratio SUVmean to background, mean ([4]; liver): 11.4 | ratio SUVmean to background, min ([4]; liver): 4.1 | ratio SUVmax to background, max ([4]; lungs): 1.8 | ratio SUVmax to background, mean ([4]; lungs): 1.0 | ratio SUVmax to background, min ([4]; lungs): 0.6 | ratio SUVmean to background, max ([4]; lungs): 1.8 | ratio SUVmean to background, mean ([4]; lungs): 1.0 | ratio SUVmean to background, min ([4]; lungs): 0.6 | ratio SUVmax to background, max ([4]; pancreas): 6.9 | ratio SUVmax to background, mean ([4]; pancreas): 4.1 | ratio SUVmax to background, min ([4]; pancreas): 2.2 | ratio SUVmean to background, max ([4]; pancreas): 7.8 | ratio SUVmean to background, mean ([4]; pancreas): 4.4 | ratio SUVmean to background, min ([4]; pancreas): 2.3 | ratio SUVmax to background, max ([4]; parotid gland): 46.2 | ratio SUVmax to background, mean ([4]; parotid gland): 24.7 | ratio SUVmax to background, min ([4]; parotid gland): 11.9 | ratio SUVmean to background, max ([4]; parotid gland): 44.6 | ratio SUVmean to background, mean ([4]; parotid gland): 25.2 | ratio SUVmean to background, min ([4]; parotid gland): 12.4 | SUVmax mean, bladder [4]: 3.1 | SUVmax mean, bloodpool [4]: 2.8 | SUVmax mean, bone [4]: 2.1 | SUVmax mean, duodenum [4]: 16.4 | SUVmax mean, kidney [4]: 51.9 | SUVmax mean, liver [4]: 9.7 | SUVmax mean, lungs [4]: 1.1 | SUVmax mean, pancreas [4]: 4.2 | SUVmax mean, parotic gland [4]: 24.6 | SUVmax mean, spleen [4]: 11.4 | SUVmax mean, submandibular gland [4]: 28.4 | SUVmean mean, duodenum [4]: 11.0 | SUVmean mean, kidney [4]: 35.5 | SUVmean mean, liver [4]: 7.3 | SUVmean mean, lungs [4]: 0.7 | SUVmean mean, pancreas [4]: 2.8 | SUVmean mean, parotic gland [4]: 16.0 | SUVmean mean, spleen [4]: 8.5 | SUVmean mean, submandibular gland [4]: 19.6 | SUVmax mean, background [4]: 1.0 | SUVmean mean, background [4]: 0.7 | SUVmean mean, bladder ([4]; listed as 18F-rhPSMA-7.3): 2.0 and 2.0±0.8 | SUVmean mean, bloodpool ([4]; listed as 18F-rhPSMA-7.3): 1.9 and 1.8 | SUVmean mean, bone [4]: 1.3 | SUVmax mean, tumor ([4]; tumor lesions): 44.0 | SUVmean mean, tumor ([4]; tumor lesions, listed as 18F-rhPSMA-7.3): 32.5±42.7 and 32.5 | ratio SUVmax to background, max ([4]; spleen): 22.4 | ratio SUVmax to background, mean ([4]; spleen): 11.4 | ratio SUVmax to background, min ([4]; spleen): 3.6 | ratio SUVmean to background, max ([4]; spleen): 28.6 | ratio SUVmean to background, mean ([4]; spleen): 13.3 | ratio SUVmean to background, min ([4]; spleen): 3.9 | ratio SUVmax to background, max ([4]; submandibular gland): 62.1 | ratio SUVmax to background, mean ([4]; submandibular gland): 28.2 | ratio SUVmax to background, min ([4]; submandibular gland): 14.0 | ratio SUVmean to background, max ([4]; submandibular gland): 62.3 | ratio SUVmean to background, mean ([4]; submandibular gland): 30.6 | ratio SUVmean to background, min ([4]; submandibular gland): 15.7 | ratio SUVmax to background, max ([4]; tumor lesions): 321.2 | ratio SUVmax to background, mean ([4]; tumor lesions): 43.6 | ratio SUVmax to background, min ([4]; tumor lesions): 1.7 | ratio SUVmean to background, max ([4]; tumor lesions): 356.4 | ratio SUVmean to background, mean ([4]; tumor lesions): 50.8 | ratio SUVmean to background, min ([4]; tumor lesions): 1.8

[^19F][^natGa]D/L-Dap-R/S-DOTAGA-rhPSMA7 [rhPSMA7-rac]
HSA Binding [1]: 96.7% | Effective Dose ([2]; 1.0 h bladder voiding interval): 1.22E−02 mSv/MBq | Effective Dose Equivalent ([2]; 1.0 h bladder voiding interval): 1.82E−02 mSv/MBq | Effective Dose ([2]; […] bladder voiding interval): 2.66E−02 mSv/MBq | Effective Dose Equivalent ([2]; […] bladder voiding interval): 3.56E−02 mSv/MBq | SUVmax mean, bladder [4]: 8.5 | SUVmax mean, bloodpool [4]: 2.4 | SUVmax mean, bone [4]: 1.7 | SUVmax mean, duodenum [4]: 14.8 | SUVmax mean, kidney [4]: 44.8 | SUVmax mean, liver [4]: 9.5 | SUVmax mean, lungs [4]: 1.1 | SUVmax mean, pancreas [4]: 3.7 | SUVmax mean, parotic gland [4]: 23.8 | SUVmax mean, spleen [4]: 11.8 | SUVmax mean, submandibular gland [4]: 27.0 | SUVmean mean, bloodpool [4]: 2.0 | SUVmean mean, duodenum [4]: 10.9 | SUVmean mean, kidney [4]: 32.4 | SUVmean mean, liver [4]: 7.0 | SUVmean mean, lungs [4]: 0.7 | SUVmean mean, pancreas [4]: 2.5 | SUVmean mean, parotic gland [4]: 16.9 | SUVmean mean, spleen [4]: 9.1 | SUVmean mean, submandibular gland [4]: 19.6 | SUVmax mean, background [4]: 1.0 | SUVmean mean, background [4]: 0.6 | SUVmean mean, bladder ([4]; listed as 18F-rhPSMA-7): 6.3 | SUVmean mean, bone [4]: 1.1 | SUVmax mean, tumor ([4]; tumor lesions): 27.6 | SUVmean mean, tumor ([4]; tumor lesions, listed as 18F-rhPSMA-7): 20.0±20.2 and 20.0
